Values of other authors in US8716482B2, “Substituted aminopiperidines as dipeptidyl peptidase-IV inhibitors for the treatment of diabetes” (Merck Sharp & Dohme Corp., priority 2009, dated 2014).

What was measured:
DPP-4 = DPP-4 (Homo sapiens (Human), UniProt P27487)
hematopoiesis = conditions: mouse, cyclophosphamide-induced neutropenia

Chain of DPP-4 (P27487 39-766, species assumed): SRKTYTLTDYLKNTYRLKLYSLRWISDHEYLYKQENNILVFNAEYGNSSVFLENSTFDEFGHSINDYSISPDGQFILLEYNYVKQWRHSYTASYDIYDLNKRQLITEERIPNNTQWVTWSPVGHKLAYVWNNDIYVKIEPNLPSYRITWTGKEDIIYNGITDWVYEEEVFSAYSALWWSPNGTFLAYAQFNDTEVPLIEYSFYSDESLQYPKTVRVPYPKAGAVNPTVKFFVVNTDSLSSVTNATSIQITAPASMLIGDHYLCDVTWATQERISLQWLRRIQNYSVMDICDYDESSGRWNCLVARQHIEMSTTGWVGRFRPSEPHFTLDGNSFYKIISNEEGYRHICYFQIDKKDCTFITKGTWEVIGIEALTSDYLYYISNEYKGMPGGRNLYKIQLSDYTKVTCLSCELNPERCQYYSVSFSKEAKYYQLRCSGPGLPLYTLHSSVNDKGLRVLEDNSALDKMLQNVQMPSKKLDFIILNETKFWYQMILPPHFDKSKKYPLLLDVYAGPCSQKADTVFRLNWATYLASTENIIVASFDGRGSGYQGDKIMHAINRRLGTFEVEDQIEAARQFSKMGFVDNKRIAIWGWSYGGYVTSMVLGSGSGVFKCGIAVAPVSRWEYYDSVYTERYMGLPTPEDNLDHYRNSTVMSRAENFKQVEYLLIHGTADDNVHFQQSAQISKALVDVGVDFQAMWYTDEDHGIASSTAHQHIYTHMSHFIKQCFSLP

degradation of GRF in plasma to GRF[3-44] (DPP-4)	Compound	hematopoiesis (hematopoiesis)
prevented	diprotin A	
	CC(C)[C@H](N)C(=O)N1CCC[C@H]1B(O)O [Val-Boro-Pro]	stimulated hematopoiesis
